# Assay results: US10538555B2, “Macrocyclic inhibitors of the PD-1/PD-L1 and CD80(B7-1)/PD-L1 protein/protein interactions” (BRISTOL-MYERS SQUIBB COMPANY, priority 2014, dated 2020)
# pIC50: −log10 of the molar value. *1 amine or outer side, *2 acyl side, *3 side chain or, on linkers, in order; H or OH if unused. Where a SMILES comes first, the peptide text is derived from it. Bridges are numbered along the chain shown (N, C = ends). [ ]: non-standard residue; d: D form. Phe(3,4,5-F3) = N[C@@H](Cc1cc(F)c(F)c(F)c1)C(=O)O; Phe(3,4-F2) = N[C@@H](Cc1ccc(F)c(F)c1)C(=O)O; NMeF = CN[C@@H](Cc1ccccc1)C(=O)O; X1 = O=C([C@H]1COCCN1[*:1])[*:2]; dHyp = O=C(O)[C@H]1C[C@H](O)CN1; NMeNle = CCCC[C@H](NC)C(=O)O; Orn = NCCC[C@H](N)C(=O)O
# Biological target: T1, Human PD-L1/PD-1 (Homo sapiens, UniProt Q9NZQ7)
# T1 construct: TVMV protease cleavage site (C); made in house; host or cells: HEK293T cells
# Experiment: HTRF Human PD-L1/PD-1 binding assay (PD-1-Ig/PD-L1-His)
# Settings: PD-L1-His 10 nM, PD-1-Ig 20 nM; class symbol; read-out: HTRF Human PD-L1/PD-1 Binding Assay IC50 Range
# Method in brief: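 Truncated Fc-fused human PD-1 (aa 25-167) at 20 nM and His-tagged PD-L1 (aa 18-239) at 10 nM final are used, with peptides preincubated 15 min with PD-L1. Detection uses europium-cryptate anti-Ig and APC anti-His antibodies; 665/620 nm ratio.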
# T1 sequence (Q9NZQ7 with tags, fused parts or gaps): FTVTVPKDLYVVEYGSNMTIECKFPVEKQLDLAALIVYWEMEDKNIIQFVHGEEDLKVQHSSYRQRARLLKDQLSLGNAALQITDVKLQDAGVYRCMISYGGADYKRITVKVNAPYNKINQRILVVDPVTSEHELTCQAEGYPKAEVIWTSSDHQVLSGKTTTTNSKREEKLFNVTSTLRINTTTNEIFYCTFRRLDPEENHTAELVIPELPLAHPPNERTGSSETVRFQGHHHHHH
row,Compound,pIC50
1,"CCCC[C@H]1C(=O)N2C[C@@H](O)C[C@@H]2C(=O)N[C@@H](CC(=O)O)C(=O)N[C@@H](C(C)C)C(=O)N(C)[C@@H](Cc2ccccc2)C(=O)N[C@@H](CCC(=O)O)C(=O)N2C[C@@H](O)C[C@@H]2C(=O)N[C@@H](Cc2c[nH]c3ccccc23)C(=O)N[C@@H](Cc2ccc(O)cc2)C(=O)N[C@@H](CCCN)C(=O)N[C@H](C(=O)NCC(N)=O)CSCC(=O)N[C@@H](Cc2ccc(F)c(F)c2)C(=O)N(C)[C@@H](Cc2ccccc2)C(=O)N1C [Example 9278] ({CH2CO}-[Phe(3,4-F2)][NMeF][NMeNle][dHyp]DV[NMeF]E[dHyp]WY[Orn]CG-NH2; thioether N-13)",8.00 to 9.00
2,"CCCC[C@H]1C(=O)N2C[C@@H](O)C[C@@H]2C(=O)N[C@@H](CC(=O)O)C(=O)N[C@@H](C(C)C)C(=O)N(C)[C@@H](Cc2ccccc2)C(=O)N[C@@H](CCC(=O)O)C(=O)N2CCOC[C@@H]2C(=O)N[C@@H](Cc2c[nH]c3ccccc23)C(=O)N[C@@H](Cc2ccc(O)cc2)C(=O)N[C@@H](CCCN)C(=O)N[C@H](C(=O)NCC(N)=O)CSCC(=O)N[C@@H](Cc2ccc(F)c(F)c2)C(=O)N(C)[C@@H](Cc2ccccc2)C(=O)N1C [Example 9279] ({CH2CO}-[Phe(3,4-F2)][NMeF][NMeNle][dHyp]DV[NMeF]E[X1]WY[Orn]CG-NH2; thioether N-13)",8.00 to 9.00
3,"CCCC[C@H]1C(=O)N2CCOC[C@@H]2C(=O)N[C@@H](CC(=O)O)C(=O)N[C@@H](C(C)C)C(=O)N(C)[C@@H](Cc2ccccc2)C(=O)N[C@@H](CCC(=O)O)C(=O)N2CCOC[C@@H]2C(=O)N[C@@H](Cc2c[nH]c3ccccc23)C(=O)N[C@@H](Cc2ccc(O)cc2)C(=O)N[C@@H](CC(C)C)C(=O)N[C@H](C(=O)NCC(N)=O)CSCC(=O)N[C@@H](Cc2ccc(F)c(F)c2)C(=O)N(C)[C@@H](Cc2ccccc2)C(=O)N1C [Example 9281] ({CH2CO}-[Phe(3,4-F2)][NMeF][NMeNle][X1]DV[NMeF]E[X1]WYLCG-NH2; thioether N-13)",8.00 to 9.00
4,"CCCC[C@H]1C(=O)N2CCOC[C@@H]2C(=O)N[C@@H](CC(=O)O)C(=O)N[C@@H](C(C)C)C(=O)N(C)[C@@H](Cc2ccccc2)C(=O)N[C@@H](CCC(=O)O)C(=O)N2CCOC[C@@H]2C(=O)N[C@@H](Cc2c[nH]c3ccccc23)C(=O)N[C@@H](Cc2ccc(O)cc2)C(=O)N[C@@H](CCCN)C(=O)N[C@H](C(=O)NCC(N)=O)CSCC(=O)N[C@@H](Cc2cc(F)c(F)c(F)c2)C(=O)N(C)[C@@H](Cc2ccccc2)C(=O)N1C [Example 9282] ({CH2CO}-[Phe(3,4,5-F3)][NMeF][NMeNle][X1]DV[NMeF]E[X1]WY[Orn]CG-NH2; thioether N-13)",7.00 to 8.00

# Second part, the molecule after the results:
row,pIC50,Compound
1,7.00 to 8.00,"CCCC[C@H]1C(=O)N2CCOC[C@@H]2C(=O)N[C@@H](CC(=O)O)C(=O)N[C@@H](C(C)C)C(=O)N(C)[C@@H](Cc2ccccc2)C(=O)N[C@@H](CCC(=O)O)C(=O)N2C[C@@H](O)C[C@@H]2C(=O)N[C@@H](Cc2c[nH]c3ccccc23)C(=O)N[C@@H](Cc2ccc(O)cc2)C(=O)N[C@@H](CCCN)C(=O)N[C@H](C(=O)NCC(N)=O)CSCC(=O)N[C@@H](Cc2cc(F)c(F)c(F)c2)C(=O)N(C)[C@@H](Cc2ccccc2)C(=O)N1C [Example 9280] ({CH2CO}-[Phe(3,4,5-F3)][NMeF][NMeNle][X1]DV[NMeF]E[dHyp]WY[Orn]CG-NH2; thioether N-13)"
2,8.00 to 9.00,"CCCC[C@H]1C(=O)N2CCOC[C@@H]2C(=O)N[C@@H](CC(=O)O)C(=O)N[C@@H](C(C)C)C(=O)N(C)[C@@H](Cc2ccccc2)C(=O)N[C@@H](Cc2ccc(O)cc2)C(=O)N2CCOC[C@@H]2C(=O)N[C@@H](Cc2c[nH]c3ccccc23)C(=O)N[C@@H](Cc2ccc(O)cc2)C(=O)N[C@@H](CC(C)C)C(=O)N[C@H](C(=O)NCC(N)=O)CSCC(=O)N[C@@H](Cc2cc(F)c(F)c(F)c2)C(=O)N(C)[C@@H](Cc2ccccc2)C(=O)N1C [Example 9283] ({CH2CO}-[Phe(3,4,5-F3)][NMeF][NMeNle][X1]DV[NMeF]Y[X1]WYLCG-NH2; thioether N-13)"
